According to patent US20260200849A1, “CATIONIC LIPIDS AND PREPARATION METHOD THEREOF” (RiboX Therapeutics HK Limited, priority 2024, published 2026):
Where “and” joins values, the source holds several entries; their conditions need not be identical. Equal values may be shown once.

How the values were obtained:
MCP-1 = experiment: In vivo tolerability by IV: serum MCP-1 by Luminex; parameters: species or system C57BL/6J mice; details: Formulation No. 001, RNA No. 331, male C57BL/6J mice, 1.0 mg*kg/1 intravenous; for MCP-1 at 2 h: 2 hours post injection; for MCP-1 at 24 h: 24 hours post injection
Method in brief: (§1)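 Male C57BL/6J mice aged 6-8 weeks (N=3) received 1.0 mg*kg−1 firefly-luciferase RNA-LNPs intravenously, with PBS as negative control. Serum taken at 2 and 24 h post-injection was assayed for MCP-1 and IL-6 by Luminex.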

Hep G2 cells [1] = experiment: In vitro expression: luciferase activity in Hep G2 cells transfected with RNA-LNPs; assay type: cell-based; details: Formulation No. 001, RNA No. 331 (firefly-luciferase), 100 ng/mL RNA-LNPs, 72 hours post transfection
Method: 2E5 Hep G2 cells were transfected with 100 ng/mL of RNA-LNPs encoding for firefly-luciferase. At 72 hours post transfection, the cells were washed and lysed. The luciferase expression (2-well repeat) was determined in the cell lysates with the luciferase assay reagent kit (Promega), according to the kit protocol, luciferase activity was measured by a luminometer.

Balb/c mice = experiment: In vivo expression by IV, 0.05 mg/kg luciferase RNA-LNPs, IVIS luminescence; details: Formulation No. 001, RNA No. 331; female Balb/c mice, 0.05 mg*kg−1 intravenous, 24-hours post injection
Method in brief: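 Female Balb/c mice (7-8 weeks, N=3) received 0.05 mg*kg−1 firefly-luciferase RNA-LNPs IV. Luciferin (15 mg/ml) was given IP at 24 and 72 h post-dose for IVIS whole-body luminescence. A second run imaged whole body, liver and spleen at 24 h only.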

[2] = RNA encapsulation efficacy (EE %) by Quant-IT Ribogreen kit; assay type: physicochemical; details: LNP
Method: (§2) The LNP size and polydispersity index (PDI), determined by dynamic light scattering (DLS), and zeta potential were measured by a Zetasizer machine (Malvern). RNA concentration and encapsulation efficacy (EE %) were analyzed by the Quant-IT Ribogreen kit by calculating the percentage encapsulation at 100%—(RNA-LNPs/RNA-LNPs with Triton X-100).

C57BL/6J mice = experiment: In vivo expression by IV, 1.0 mg/kg luciferase RNA-LNPs, whole-body and organ IVIS luminescence; details: Formulation No. 001, RNA No. 331; male C57BL/6J mice, 1.0 mg*kg−1 intravenous, 24-hours post injection
Method in brief: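 Male C57BL/6J mice, 6-8 weeks old (N=3), received 1.0 mg*kg−1 firefly-luciferase RNA-LNPs IV. At 24 h post-dose, luciferin (15 mg/ml) was given IP, and whole-body, liver, spleen, kidney, small and large intestine luminescence was imaged by IVIS.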

[3] = LNP size and polydispersity index (PDI) by dynamic light scattering (Zetasizer); assay type: physicochemical; details: for Size (nm): Formulation No. 001 (Ionizable lipid:DSPC:cholesterol:DMG-PEG2000 = 50:10:38.5:1.5, N/P 6), RNA No. 331
Method: as §2

IL-6 = experiment: In vivo tolerability by IV: serum IL-6 by Luminex; parameters: species or system C57BL/6J mice; details: Formulation No. 001, RNA No. 331, male C57BL/6J mice, 1.0 mg*kg/1 intravenous; for IL-6 at 2 h: 2 hours post injection; for IL-6 at 24 h: 24 hours post injection
Method in brief: as §1

Hep G2 cells [4] = experiment: In vitro toxicity: Hep G2 cell viability by CellTiter-Glo; assay type: cell-based; details: Formulation No. 001, RNA No. 331, 1 μg/mL RNA-LNPs, 72 hours post transfection, cell only = 100%
Method: 2E5 Hep G2 cells were transfected with 1 μg/mL RNA-LNPs. At 72 hours post transfection, cell viability (2-well repeat) was determined with the CellTiter-Glo® reagent kit, according to the kit protocol, measured by a luminometer. Cell only as control (100%).
The cell viability was calculated according to the following formula: […]

[5] = In vivo lipid metabolism by IV: ionizable lipid concentration in plasma and liver by LC-MS/MS; parameters: species or system Sprague-Dawley (SD) rats; details: IV 0.15 mg/kg RNA-LNPs (hEPO), male SD rats, individual animals N=3
Method: In Vivo Lipid Metabolism by IV 7-8 week old, male Sprague-Dawley (SD) rats (N=3) were injected with 0.15 mg*kg−1 of RNA-LNPs encoding for hEPO by intravenous injection. At 1-/6-/96-/168-hours post injection, about 100 μL blood will be harvested and immediately added to the EDTAK2 containing tube. Place on wet ice and then centrifuged at 3000 g×5 min to obtain plasma. 30 μL plasma will be aliquoted to the 1.5 mL tubes. At terminal 6-/168-hours post injection, the rats will be euthanized with CO2, hemorrhaged immediately with cardiac puncture, respectively. The livers were harvested, weighed and washed with saline, then put into 50 ml centrifuge tube placed in liquid nitrogen, then transferred into wet ice, and finally stored at −80° C. immediately. Both plasma and liver samples were used for ionizable lipid concentration quantification by LC-MS/MS. The lower limit of quantitation (LLOQ) is 1 ng/mL in plasma or 11 ng/g in liver. BQL—Below the lower limit of quantitation (LLOQ).

[6] = Formulation No. 001, RNA No. 019 (hEPO)
[7] = Formulation No. 001, RNA No. 331

Row | SMILES | MCP-1 at 2 h (MCP-1) [pg/mL] | MCP-1 at 24 h (MCP-1) [pg/mL] | In vitro Expression (Mean) (Hep G2 cells [1]) | Liver (p/s) (Mean) (Balb/c mice) | Spleen (p/s) (Mean) (Balb/c mice) | Whole body (p/s) (Mean) (Balb/c mice) | EE (%) [2, 7] [%] | Kidney (p/s) (C57BL/6J mice) | Large intestine (p/s) (C57BL/6J mice) | Liver (p/s) (C57BL/6J mice) | Small intestine (p/s) (C57BL/6J mice) | Spleen (p/s) (C57BL/6J mice) | Whole body (p/s) (C57BL/6J mice) | Size (nm) [3] [nm] | PDI [3, 7] | IL-6 at 2 h (IL-6) [pg/mL] | IL-6 at 24 h (IL-6) [pg/mL] | In vitro cell viability (%) (Mean) (Hep G2 cells [4]) | other results
1 | CCCCC/C=C\C/C=C\CCCCCCCCOC(=O)NC(COC(=O)NCCN1CCCCCC1)C(=O)OCCCCCC(=O)OCC(CCCCCCCC)CCCCCCCCCC (centres unmarked) [Lipid 911] | 2000 | 254 | 5.01E+05 | 5.42E+08 | 1.27E+08 | 1.17E+09 | 98.24 | 3.75E+07 | 8.42E+07 | 7.97E+09 | 6.47E+08 | 8.51E+08 | 7.27E+09 | 64.33 | 0.03 | 28.5 | 4.43 | 81.84 | EE (%) [2, 6]: 94.15%; PDI [3, 6]: 0.05; Size [3, 6]: 58.16 nm; Plasma (ng/mL), ionizable lipid concentration ([5]; 1 h post injection): 7622 ng/mL and 5572 ng/mL and 3130 ng/mL; Liver (ng/g), ionizable lipid concentration ([5]; 6 h post injection): 29536 ng/g and 35435 ng/g; Plasma (ng/mL), ionizable lipid concentration ([5]; 6 h post injection): 298 ng/mL and 2.59 ng/mL and 3.41 ng/mL; Liver (ng/g), ionizable lipid concentration ([5]; 168 h post injection): 890 ng/g and 1331 ng/g and 618 ng/g; concentration at 6 h ([5]; male, Sprague-Dawley, rat, liver, iv, 0.15 mg/kg, 6 h post injection, read-out: Liver (ng/g), ionizable lipid concentration): 29400 ng/g
2 | CCCCCCCCCC(=O)OCCCCCCCOC(=O)C(COC(=O)NCCN1CCCCC1)NC(=O)OCCCCCCCCOC(=O)C(CCCCCC)CCCCCCCC (centres unmarked) [Lipid 933] | 1240 | 300 | 1.26E+06 | 6.92E+08 | 1.49E+08 | 2.89E+09 | 92.12 | 6.08E+07 | 9.52E+07 | 3.90E+09 | 6.36E+08 | 5.98E+08 | 3.45E+09 | 75.47 | 0.02 | 68.4 | 8.03 | 95.05 | 
3 | CCCCC/C=C\C/C=C\CCCCCCCCOC(=O)NC(COC(=O)NCCN1CCCCCC1)C(=O)OCCCCCC(=O)OCCCCCCCCCCC (centres unmarked) [Lipid 939] | 2440 | 956 | 3.08E+05 | 2.92E+08 | 1.74E+08 | 1.17E+09 | 90.23 | 1.21E+07 | 1.70E+08 | 5.86E+07 | 4.96E+08 | 1.18E+08 | 3.50E+09 | 104.00 | 0.19 | 4280 | 9.43 | 95.74 | 
4 | CCCCC/C=C\C/C=C\CCCCCCCCOC(=O)NC(COC(=O)NCCN1CCCCCC1)C(=O)OCCCCCCCOC(=O)CCCCCCCCC (centres unmarked) [Lipid 944] | 3640 | 161 | 3.60E+05 | 5.10E+08 | 1.31E+08 | 1.29E+09 | 90.80 | 1.54E+07 | 5.53E+07 | 5.27E+08 | 1.93E+08 | 4.76E+08 | 1.06E+09 | 86.75 | 0.17 | 432 | 2.5 | 95.62 | 
5 | CCCCC/C=C\CCOC(=O)CCCCCOC(=O)C(COC(=O)NCCN1CCCCC1)NC(=O)OCCCCCCCCOC(=O)C(CCCCCC)CCCCCCCC (centres unmarked) [Lipid 954] | 4780 | 789 | 4.78E+05 | 8.01E+08 | 9.82E+07 | 2.71E+09 | 88.46 | 1.53E+08 | 9.03E+08 | 3.01E+09 | 1.69E+09 | 7.74E+08 | 1.08E+10 | 83.18 | 0.01 | 4220 | 8.87 | 93.41 | 
6 | CCCCC/C=C\C/C=C\CCCCCCCCOC(=O)NC(COC(=O)NCCN1CCCCCC1)C(=O)OCCCCCCCCCC(=O)OCCCCCCC (centres unmarked) [Lipid 959] | 1760 | 176 | 2.95E+05 | 1.07E+09 | 2.04E+08 | 3.16E+09 | 95.49 | 1.10E+07 | 3.10E+07 | 1.10E+09 | 1.43E+08 | 4.52E+08 | 7.04E+08 | 91.09 | 0.13 | 78.7 | 1.8 | 96.03 | 
